According to patent publication US10857105B2, “Compounds and compositions for intracellular delivery of therapeutic agents” (ModernaTX, Inc., priority 2017, dated 2020):

Columns and labels:
[1] = Tolerability (AST, ALT, clinical signs, hematology) in non-human primates; type: in vivo; conditions: single dose 0.05, 0.3 or 1.0 mpk, intravenous infusion 60 minutes
Experimental: The tolerability and efficacy of nanoparticle compositions to non-human primates was also investigated using a sample formulation including Compound 18. The formulation was prepared according to the standard MC3 formulation described above and included an hEPO mRNA. Primates were administered a single dose of 0.05 (Group 1), 0.3 (Group 2), or 1.0 (Group 3) mpk via intravenous infusion for 60 minutes. Three primates were administered each dose. Expression of hEPO was measured prior to dosing and at 2, 6, 24, 48, and 96 hours post-treatment (Table 26). Table 28 includes levels of indicators of complement activation, while Table 29 includes cytokine induction data.
In general, lower doses were better tolerated. High doses induced body temperature elevation and hunched posture, which is similar to the behavior observed for primates administered higher doses of MC3 formulations.

hEPO mRNA = assay: hEPO expression after subcutaneous administration to mice; type: in vivo, CD-1 mice; conditions: 6 hr. time point, relative to MC3
Experimental: The numbers 1-11 in this figure correspond to MC3, PBS, and Compounds 18, 25, 48, 49, 111, 60, 168, 207, and 233, respectively.
FIG. 27 is a graph showing the hEPO mRNA expression in CD1-mice measured 3 h (left block), 6 h (middle block) and 24 h (right block) after subcutaneous administration of various nanoparticle compositions at 0.5 mpk. Numbers 1-9 refer to compositions containing an mRNA expressing hEPO and the following: 1: PBS, 2: Compound 18, 3: Compound 30; 4: Compound 96; 5: Compound 151; 6: Compound 98; 7: Compound 163; 8: Compound 164; 9: Compound 165.

mouse liver tissue = assay: Disappearance of parent lipid and primary metabolite from mouse liver after 0.25 mg/kg mRNA on days 1, 8 and 15; type: in vivo
Experimental: (§1) In vitro metabolite identification studies using compound 18 were also performed. […] The disappearance of parent compound 18 and the primary metabolite, compound 166, from mouse liver tissue was measured after dosing 0.25 mg/kg mRNA on days 1, 8, and 15.

human hepatocytes = assay: Metabolite profiling of Compound 18 incubated with human hepatocytes; type: in vitro ADME; parameters: key: +: Detected; ND: Not detected; conditions: Compound 18 (10 μM)
Experimental: as §1
The results of metabolic profiling and characterization for compound 18 incubated with human hepatocytes or human plasma are summarized in Tables 41 and 42, respectively.

Sprague Dawley rat = assay: One-month toxicological evaluation with weekly dosing in rat; type: in vivo
Experimental: Serum ALT and AST levels: Samples were analyzed using a Modular Analytics analyzer.
Next, tolerability and safety of the compound 18-based LNPs in vivo was tested. A full toxicological evaluation of compound 18-based LNPs in both Sprague Dawley rat and cynomolgus monkey was performed using a standard one-month study with weekly dosing at three dose levels in each species. Rats were dosed at 0.05, 0.5, and 2 mg/kg and a non-human primates was dosed at 0.1, 0.3, and 1 mg/kg. LNP-related toxicities associated with MC3-based LNP systems are generally associated with immunological (cytokine and complement activation) and hepatic injury. […] FIGS. 32 and 33 highlight the day 30 levels of alanine transferase (ALT, FIG. 32A) and aspartate aminotransferase (AST, FIG. 32B), two indicators of liver damage.

[2] = Alanine aminotransferase (ALT) and aspartate aminotransferase (AST) in rat after intravenous administration; type: in vivo
Experimental: Table 19A summarizes the hEPO expression, IP-10 induction, liver and spleen levels, and alanine aminotransferase (ALT) and aspartate aminotransferase (AST) measured upon intravenous administration of formulations including Compounds 48, 49, and 50 to rat at 0.2 and 2 mpk and hEPO mRNA. hEPO concentrations were measured 6 hours after administration, while cytokine induction and liver and spleen levels were measured 48 hours after administration. hEPO and IP-10 concentrations are presented in pg/ml, while liver levels are provided in ng/g. ALT and AST levels are presented in international units.

[3] = LNP formulation characterization (particle size, PDI, RNA encapsulation, endotoxin); type: physicochemical; conditions: ± SD within one assay run
Experimental: Preparation of LNP formulations: Lipids were dissolved in ethanol at molar ratios of 50:10:38.5:1.5 (ionizable lipid: DSPC: cholesterol:PEG-lipid). The lipid mixture was combined with a 6.25 mM sodium acetate buffer (pH 5) containing mRNA at a ratio of 3:1 (aqueous:ethanol) using a microfluidic mixer. Formulations were dialyzed against phosphate buffered saline (pH 7.4) in dialysis cassettes for at least 18 hours. Formulations were concentrated via centrifugal filtration, passed through a 0.22-μm filter and stored at 4° C. until use. […] The apparent pKa of the LNP formulation was determined via a TNS assay.

[4] = pKa / apparent pKa of nanoparticle compositions; conditions: Table 1B; formulated with hEPO mRNA

Row | Structure (SMILES) | Tolerability [1] | Novel lipid/MC3 expression ratio, s.c. hEPO 0.5 mpk (hEPO mRNA) | clearance from mouse liver tissue (mouse liver tissue) | Detection at 0 min (human hepatocytes; human hepatocytes (1 million cells/mL), 0 min) | Detection at 60 min (human hepatocytes; human hepatocytes, 60 min) | Detection at 120 min (human hepatocytes; human hepatocytes, 120 min) | Detection at 240 min (human hepatocytes; human hepatocytes, 240 min) | ALT and AST levels, day 30, relative to PBS control (Sprague Dawley rat; any dose level) | toxicological findings (Sprague Dawley rat; weekly dosing one month, 0.05, 0.5 and 2 mg/kg) | ALT ([2]; intravenous 0.2 mpk) | AST ([2]; intravenous 0.2 mpk) | ALT ([2]; intravenous 2 mpk) | AST ([2]; intravenous 2 mpk) | % Encapsulation [3] | PDI (polydispersity index) [3] | Apparent pKa [4]
1 | CCCCCCCCCOC(=O)CCCCCCCN(CCO)CCCCCCCC(=O)OC(CCCCCCCC)CCCCCCCC [Compound 18, Heptadecan-9-yl 8-((2-hydroxyethyl)(8-(nonyloxy)-8-oxooctyl)amino)octanoate] | tolerated similarly to the MC3 formulation | 4.26 | rapid clearance | + | + | + | + | minimal elevation | no adverse findings |  |  |  |  |  |  | 
2 | CCCCCC=CCC=CCCCCCCCCC(CCCCCCCCC=CCC=CCCCCC)OC(=O)CCCN(C)C (stereo not shown) [MC3, heptatriaconta-6,9,28,31-tetraen-19-yl 4-(dimethylamino)butanoate, reference compound] |  |  |  |  |  |  |  |  |  | 63.6 international units | 134.8 international units | 79.6 international units | 139.0 international units | 97.3 ± 1.9% | 0.11 ± 0.04 | 6.35
